Experiments:
INS-1 cells [1] = test: 2-deoxy-[3H]d-glucose (2-DG) uptake in INS-1 cells; type: cell-based, rat; details: overnight incubation, lysine 10 mM, arginine 5 mM, HMB 25 μM, 2-DG uptake over 10 min, FIG. 1
Description: 2-deoxy-[3H]d-glucose (2-DG) (10 μmol/L) uptake was measured over a 10 minute period under conditions in which the uptake was linear. The uptake of 2-DG was terminated after 10 minutes by rapidly aspirating off the radioactive incubation medium and washing the cells three times in ice-cold phosphate-buffered saline. The radioactivity associated with the cells was determined by cell lysis in 0.5 N NaOH with neutralization by the addition of 0.5 N HCl, followed by liquid scintillation. Aliquots from each well were used to determine the protein concentration using the bicinchoninic acid (BCA) Protein assay.

INS-1 cells [2] = test: MTT cell viability assay in palmitate-treated INS-1 cells; type: cell-based, rat; details: palmitate 250 μM 24 hours, effectors added 3 hours before (arginine 5 mM, lysine 10 mM, HMB 25 μM), FIG. 6
Description: This example describes the use of the rat insulinoma cell line (INS-1) to detect the effect of the combination of lysine, arginine, and HMB on the functional characteristics of β-cells in the presence of free fatty acids (e.g., palmitic acid) using standardized protocols for viability. […] The INS-1 cells were maintained in RPMI 1640 medium with 11.1 mmol/L D-glucose supplemented with 10% fetal bovine serum, 100 units/mL penicillin, 100 μg/mL streptomycin, 10 mmol/L HEPES, 2 mmol/L L-glutamine, 1 mmol/L sodium pyruvate, and 50 μmol/L β-mercaptoethanol at 37° C./5% CO2 in a humidified atmosphere.
The pre-confluent pancreatic cells were left either untreated (Control) or treated with palmitate at a concentration of 250 μM for 24 hours in complete medium (Palmitate). Three hours before incubation with palmitate, four different effectors were added: arginine (5 mM), lysine (10 mM), HMB (25 μM), and the combination of arginine (5 mM), lysine (10 mM), and HMB (25 μM).
The cell groups employed in the study were the following: • (i) Control: INS-1 cells without ingredients. • (ii) Palmitate: INS-1 cells incubated in the presence of 250 μM palmitate. • (iii) Palmitate+ARG: INS-1 cells incubated in the presence of 250 μM palmitate and 5 mM of arginine. • (iv) Palmitate+LYS: INS-1 cells incubated in the presence of 250 μM palmitate and 10 mM of lysine. • (v) Palmitate+HMB: INS-1 cells incubated in the presence of 250 μM palmitate and 25 μM of HMB-free acid. • (vi) Palmitate+MIX: INS-1 cells incubated in the presence of 250 μM palmitate and the combination of 5 mM of arginine, 10 mM of lysine, and 25 μM of HMB.
A cell viability assay was performed by the indirect measurement of cell metabolic activity using MTT (3-(4,5-dimethylthiazol-2-yl)-2,5-diphenyltetrazolium bromide). After 24 hours of incubation with the above effectors, the MTT solution (0.5 mg/ml) was added for 30 minutes. The supernatant was removed, 100 μl MTT solvent was added to each well, and the culture plate was shaken for 10 minutes before the Optical Density (OD) values were recorded at 570 nm.

GLUT2 = test: Expression level of glucose transporter GLUT2 in INS-1 cells; details: HMB 25 μM, FIG. 2; for increase in the relative intensity of the expression level of GLUT2 compared to control: lysine 10 mM, arginine 5 mM
Description: The INS-1 cells were maintained in RPMI 1640 medium with 11.1 mmol/L D-glucose supplemented with 10% fetal bovine serum, 100 units/mL penicillin, 100 μg/mL streptomycin, 10 mmol/L HEPES, 2 mmol/L L-glutamine, 1 mmol/L sodium pyruvate, and 50 μmol/L β-mercaptoethanol at 37° C./5% CO2 in a humidified atmosphere.
The cells were incubated with different effectors overnight. The following cell groups were employed: • (i) Control: INS-1 cells without ingredients. • (ii) ARG: INS-1 cells incubated in the presence of 5 mM of arginine. • (iii) LYS: INS-1 cells incubated in the presence of 10 mM of lysine. • (iv) HMB: INS-1 cells incubated in the presence of 25 μM of HMB-free acid. • (v) MIX: INS-1 cells incubated in the presence of the combination of 5 mM of arginine, 10 mM of lysine, and 25 μM of HMB.

INS-1 cells [3] = test: Insulin production by INS-1 cells (24 h effectors, then glucose 2 h; RIEI Kit); type: cell-based, rat; details: arginine 5 mM, lysine 10 mM, HMB 25 μM for 24 hours, then glucose 10 mM 2 hours, FIG. 4
Description: Insulin production by β-cells was evaluated by incubating INS-1 cells in the presence of the following effectors: arginine (5 mM), lysine (10 mM), HMB (25 μM), and a combination of arginine (5 mM), lysine (10 mM), and HMB (25 μM). INS-1 cells without effectors were again used as a control. The cells were incubated with each of the above mentioned effectors for 24 hours. Following the initial 24 hour incubation period with the effectors, the same INS-1 cells were incubated with glucose (10 mM) for 2 hours. Insulin was again detected using the RIEI Kit according to the manufacturer's instructions.

INS-1 cells [4] = test: Acute insulin secretion in INS-1 cells (Rat Insulin Enzyme Immunoassay); type: cell-based; details: glucose 10 mM, arginine 5 mM, lysine 10 mM, HMB 25 μM, 2 hours, FIG. 3
Description: Acute insulin secretion was determined by incubating INS-1 cells in the presence of the following effectors: glucose (10 mM), and the effectors arginine (5 mM), lysine (10 mM), HMB (25 μM), and a combination of arginine (5 mM), lysine (10 mM), and HMB (25 μM) for 2 hours. INS-1 cells without effectors were used as a control. Insulin was detected using the Rat Insulin Enzyme Immunoassay (RIEI) Kit (Mercodia, Sweden) according to the manufacturer's instructions.

SMILES | increase in glucose uptake compared to the control (INS-1 cells [1]) | cell viability at 24 hours (in words) (INS-1 cells [2]) | decrease in the relative intensity of the expression level of GLUT2 compared to control (GLUT2) [%] | insulin production compared to the control (in words) (INS-1 cells [3]) | acute response of insulin secretion to extracellular glucose, with respect to the control (in words) (INS-1 cells [4]) | increase in the relative intensity of the expression level of GLUT2 compared to control (GLUT2) [%]
CC(C)(O)CC(=O)O [HMB, beta-hydroxy-beta-methylbutyrate] | about 31% | reduced cell viability | ~23 | rose slightly | did not show a significant difference | 
N=C(N)NCCC[C@H](N)C(=O)O [arginine] | about 52% | reduced cell viability |  | rose slightly | did not show a significant difference | ~30
NCCCC[C@H](N)C(=O)O [lysine] | about 100% | reduced cell viability |  | rose slightly | did not show a significant difference | ~90

Source: patent publication US20240065997A1, “Methods and Compositions for Improving Insulin Production and Secretion” (ABBOTT LABORATORIES, priority 2021, published 2024)
